Six molecules from patent publication US9351944B1, “Malodor eliminating compositions” (TAKASAGO INTERNATIONAL CORPORATION, priority 2008, dated 2016) can be followed below.

Several values for one entry are separate records, joined by “and”; a condition that tells them apart may be missing. Equal values may be shown once. A value given as a limit tells only on which side of the number the result lay.

Experiment [1] can be described thus: Methyl mercaptan chemical suppression by Group A and Group B compounds (GC-PFPD). Conditions: test material 200 ppm, malodor material 10 ppm, room temperature 2 hours, ethanol/deionized water. How it is done: 2 μl of 0.5%(w/v) of sodium methoxide in deionized water, 20 μl of 1% (w/v) test malodor eliminating material in ethanol, 80 μl of ethanol, and 900 μl of deionized water were added into a 2 ml GC vial, left to sit at room temperature for 2 hours, and analyzed using Multipurpose sampler-GC-PFPD (Gas Chromatography-Pulsed Flame Photometric Detector) (GC-PFPD)MPS2 (Gerstel)—GC; 6890N (Agilent)—PFPD; model 5380 (OI Analytical). As a control, ethanol was added instead of test malodor eliminating materials. The final concentration of test OE material and malodor material are 200 ppm and 10 ppmm, respectively. Malodor suppression was calculated as follows: Malodor Suppression (%)=(GC area of control sample−GC area of test_sample)/GC area of control sample×100

Experiment [2] is described as follows: Propyl mercaptan chemical suppression by malodor eliminating materials (GC-PFPD). Conditions: OE material 0.2%, malodor material 10 ppm, room temperature 2 hours, triplicate. The protocol: (§1) The selected OE materials were tested for propyl, allyl, and furfuryl mercaptan suppression. 100 μl of 0.01%(w/v) of test malodor material in ethanol, 2 μl of neat flavor oil and 900 μl of deionized water were added into a 4 ml vial and left to sit at room temperature for 2 hours. As a control, ethanol was added instead of test flavor materials. The final concentration of test OE material and malodor material are 0.2% and 10 ppm, respectively. 3 ml of ethanol was added into the resulting vial and the thiol level was analyzed using GC-PFPD. Each material was tested in triplicate. Malodor suppression was calculated as described in the example 1 above.

Experiment [3] can be described thus: Allyl mercaptan chemical suppression by malodor eliminating materials (GC-PFPD). Conditions: OE material 0.2%, malodor material 10 ppm, room temperature 2 hours, triplicate. How it is done: as §1
The nature of experiment [4]: Furfuryl mercaptan chemical suppression by malodor eliminating materials (GC-PFPD). Conditions: OE material 0.2%, malodor material 10 ppm, room temperature 2 hours, triplicate. How it is done: as §1
A short description of experiment [5]: Methyl mercaptan suppression by Group A and Group B materials alone and combined (synergistic or additive activity). The following applies: in ethanol, room temperature 2 hours. How it is done: The synergistic or additive activity of methyl mercaptan inhibition of malodor eliminating materials was tested. 5-40 μl of 1% (w/v) test OE materials in ethanol was placed into a 2 ml GC vial. Ethanol was added into this vial up to 1000 μl. 2 μl of 0.5%(w/v) of sodium methoxide in deionized water was added into the resulting vial, left to sit at room temperature for 2 hours, and analyzed using Multipurpose sampler-GC-PFPD. As a control, ethanol was added instead of test OE materials. Malodor suppression was calculated as described in Example 1 above.

Experiment [6] in a line: Suppression of methyl mercaptan (Example 12, GC-PFPD). The following applies: test material 0.2%, malodor material 10 ppm, room temperature 2 hours, triplicate. How it is done: 100 μl of 0.01%(w/v) of test malodor material in ethanol, 2 μl of neat flavor oil and 900 μl of deionized water were added into a 4 ml vial and left to sit at room temperature for 2 hours. As a control, ethanol was added instead of the malodor reducing compound. The final concentration of test material and malodor material are 0.2% and 10 ppmm, respectively. 3 ml of ethanol was added into the resulting vial and the thiol level was analyzed using GC-PFPD as described above. Each material was tested in triplicate. Malodor suppression was calculated as described in the example 1 above.

For the molecule `C/C=C/C(=O)C1=C(C)C=CCC1(C)C` [DAMASCENONE, damascenone], the “methyl mercaptan suppression (%)” value in experiment [1] amounted to 100%; in experiment [6] it was 81%. Also, the “Malodor reduction (%) propyl mercaptan” value in experiment [2] was found to be 49%. Moreover, in experiment [3], the “Malodor reduction (%) allyl mercaptan” value was 67%. For the same molecule, the “Malodor reduction (%) furfuryl mercaptan” value in experiment [4] amounted to 67%. In experiment [5] (Group A level 50 ppm), the “methyl mercaptan suppression (%) A alone” value was 28% and 17%.

As to `C=CCc1ccc(O)c(OC)c1` [EUGENOL, eugenol], the results for the “methyl mercaptan suppression (%)” value in experiment [1] and in experiment [6] were 46% and 78%, respectively. In experiment [2], the “Malodor reduction (%) propyl mercaptan” value was found to be 44%. In addition, the “Malodor reduction (%) allyl mercaptan” value in experiment [3] is reported as 63%. In addition, the “Malodor reduction (%) furfuryl mercaptan” value in experiment [4] came to 80%. For the same molecule, in experiment [5] (Group B level 400 ppm), the “methyl mercaptan suppression (%) B alone” value was 12% and 14% and 15% and 16%.

As for `CC/C=C\CCOC(C)=O` [HEXENYL CIS 3 ACETATE, cis-3-hexenyl acetate], the “methyl mercaptan suppression (%)” value was 60% in experiment [1] and 38% in experiment [6]. Besides, the “Malodor reduction (%) propyl mercaptan” value in experiment [2] was less than 20%. For the same molecule, the “Malodor reduction (%) allyl mercaptan” value in experiment [3] was less than 20%. Besides, the “Malodor reduction (%) furfuryl mercaptan” value in experiment [4] amounted to 28%. Moreover, the “methyl mercaptan suppression (%) B alone” value in experiment [5] (Group B level 100 ppm) is 22% and 27%.

Take `CC(=O)/C=C/C1=C(C)CCCC1(C)C` [IONONE-BETA, ionone beta]: the “methyl mercaptan suppression (%)” value came out at 23% in experiment [1] and 55% in experiment [6]. In addition, in experiment [2], the “Malodor reduction (%) propyl mercaptan” value amounted to 27%. Also, the “Malodor reduction (%) allyl mercaptan” value in experiment [3] came to 37%. Moreover, the “Malodor reduction (%) furfuryl mercaptan” value in experiment [4] was determined as 51%. Moreover, the “methyl mercaptan suppression (%) A alone” value in experiment [5] (Group A level 200 ppm) amounted to 71%.

`CCCCCC#CC(=O)OC` [METHYL HEPTIN CARE, methyl heptin carbonate]: the “methyl mercaptan suppression (%)” value in experiment [1] was 92%; in experiment [6] it was 80%. Also, the “Malodor reduction (%) propyl mercaptan” value in experiment [2] amounted to 44%. The “Malodor reduction (%) allyl mercaptan” value in experiment [3] came to 63%. The “Malodor reduction (%) furfuryl mercaptan” value in experiment [4] is on record as 69%. Further, the “methyl mercaptan suppression (%) A alone” value in experiment [5] (Group A level 50 ppm, listed as METHYL HEP CARB) is 67% and 53%.

piperitone-d [[…]]: the “methyl mercaptan suppression (%)” value in experiment [1] was 37%; in experiment [6], 45%. The “Malodor reduction (%) propyl mercaptan” value in experiment [2] was less than 20%. Besides, in experiment [3], the “Malodor reduction (%) allyl mercaptan” value is listed as 51%. The “Malodor reduction (%) furfuryl mercaptan” value in experiment [4] turned out to be 64%. For the same molecule, the “methyl mercaptan suppression (%) A alone” value is recorded as 8% in experiment [5] (Group A level 200 ppm) and 12% in experiment [5] (Group A level 200 ppm, listed as PIPERITONED).
